SMILES strings stand for the structures.

The assay concerns Mycobacterium tuberculosis. Kind of assay: Resistance factor, ratio of MIC for antimycobacterial activity against Mycobacterium tuberculosis H37Rv over expressing InhA to MIC for antimycobacterial activity against Mycobacterium tuberculosis H37Rv transfected with pMV261 empty vector. Type of assay: functional.
For `CC(C)[C@H]1OC(=O)[C@H](C)[C@H](O)[C@H](Cc2cccnc2)NC(=O)[C@@H](NC(=O)c2ncccc2O)[C@@H](C)OC1=O`, the Ratio was 8. In the case of `CC[C@H]1OC(=O)[C@H](C)[C@H](O)[C@H](Cc2cccnc2)NC(=O)[C@@H](NC(=O)c2ncccc2O)[C@@H](C)OC1=O`, the Ratio is above 4. As to `C[C@H]1OC(=O)[C@@H](Cc2ccccc2)OC(=O)[C@H](C)[C@H](O)[C@H](Cc2cccnc2)NC(=O)[C@H]1NC(=O)c1ncccc1O`, the Ratio was above 4.

For `CC[C@H](C)[C@H]1OC(=O)[C@H](C)[C@H](O)[C@H](Cc2cccnc2)NC(=O)[C@@H](NC(=O)c2ncccc2O)[C@@H](C)OC1=O`, the Ratio is 1. Take `NNC(=O)c1ccncc1` [ISONIAZID]: the Ratio is on record as 31.

The values are drawn from ChEMBL document CHEMBL4376876 (J Med Chem, 2020).
